Consider seven compounds from publication PMC9551036, “A selective and orally bioavailable VHL-recruiting PROTAC achieves SMARCA2 degradation in vivo” (Nature Communications, 2022).

Several values for one entry are separate records, joined by “and”; a condition that tells them apart may be missing. Identical values can stand only once. Like-named read-outs stand apart in the source and are kept apart here.

One data set addresses SMARCA2 (Homo sapiens, UniProt P51531). As to the kind of experiment: SMARCA2 capillary electrophoresis protein assay in other cell lines (A549, NCI-H1568, HCT116, LU99, HCC-364, HCT-15, HCC4006, SK-N-AS). The data set is classed as cell-based. The arrangement: endogenous in cells; host or cells: RKO, NCI-H1568, A549, HCT116, LU99, HCC-364, HCT-15, HCC4006, SK-N-AS. As for the experimental part: 130,000–200,000 cells were seeded in 24-well plates and incubated until settled down or overnight. Compounds were dissolved in DMSO and added to cells in indicated concentrations using a digital dispenser following an optional media change. Cells were incubated for 4 or 18 h as indicated. For SMARCA2/4 half-life determination, 150,000 or 200,000 cells were seeded in 24-well plates. The next day, 50 µg/ml cycloheximide (Sigma) was added and cells were incubated for 1–24 h. For SMARCA2/4 re-synthesis measurements, 200,000 cells were seeded in 24-well plates. The next day, 100 nM compound 6 was added for 4 h to degrade SMARCA2/4, and a sample was taken as baseline for normalisation. To allow re-synthesis, a VHL binder (compound 32, 25 or 50 µM) was then added for 3 or 24 h. Medium was removed, cells were washed with PBS and lysed with 80 µl Lysis Buffer (MSD Tris Lysis Buffer (#R60TX-2) + Halt Inhibitor Cocktail (100x) + Benzonase 0.5 µL/ml). Samples were frozen at −80 °C and thawed at room temperature before use. Samples were transferred to a V-bottom plate and insoluble debris was pelleted by centrifugation for 5 min at maximum speed. The supernatant was transferred to a fresh plate. Master Mix and Ladder were prepared according to manufacturer’s instructions for 12–230 kDa Wes Separation Module, 8 × 25 capillary cartridges, Protein Simple #SM-W004 with Anti-Rabbit Detection Module for Wes, Peggy Sue or Sally Sue, Protein Simple #DM-001. 4.8 µl lysate were mixed with 1.2 µl Master Mix to achieve a protein concentration of ~0.5 µg/µl. Antibodies were diluted in Antibody Diluent II (SMARCA2 Sigma #HPA029981 RRID:AB_10602406 1:25–100, SMARCA4 Cell Signalling #49360 clone D1Q7F RRID:AB_2728743 1:15–120 or Abcam #ab110641 clone EPNCIR111A RRID:AB_10861578 1:60, GAPDH Abcam #ab9485 RRID:AB_307275 1:250). Wes plates were prepared and run according to manufacturer’s instructions. Proteins were quantified with accompanying Compass Software. SMARCA2/4 protein levels were normalised to GAPDH. […] Where applicable, curves were fitted using a 4-parametric logistic model.

A short description of another data set: Plasma protein binding. The data set is classed as in vitro ADME. As to conditions: for fraction unbound at 5 h, 3 µmol/L: bovine, read-out: PPB fu 10% Calf; for fraction unbound at 5 h, 3 µmol/L / PPB fu 10% Calf: 10% calf. Here is the method:
Binding of compound to plasma proteins was determined by equilibrium dialysis of 3 µmol/L compound in plasma (or plasma dilutions in PBS) against PBS through an 8 kDa molecular-weight cut-off cellulose membrane (RED device, Thermo Fisher) at 37 °C for 5 h. After incubation, aliquots from donor and acceptor compartments were precipitated and the concentrations in the supernatants were determined by quantitative LC-MS/MS. Calibration and quality control samples were prepared using blank plasma and internal standard. The fraction unbound was calculated as ratio of the compound concentration in the acceptor compartment to the concentration in the donor compartment.

The mark [1] stands for this setting: NCI-H1568 (4 h), mean ± SD, read-out: SMARCA2 DC50.
The mark [2] stands for this setting: NCI-H1568, 4h, individual replicates, read-out: NCI-H1568 (4h) SMARCA2 DC50.

Chain of SMARCA2 (P51531 whole entry): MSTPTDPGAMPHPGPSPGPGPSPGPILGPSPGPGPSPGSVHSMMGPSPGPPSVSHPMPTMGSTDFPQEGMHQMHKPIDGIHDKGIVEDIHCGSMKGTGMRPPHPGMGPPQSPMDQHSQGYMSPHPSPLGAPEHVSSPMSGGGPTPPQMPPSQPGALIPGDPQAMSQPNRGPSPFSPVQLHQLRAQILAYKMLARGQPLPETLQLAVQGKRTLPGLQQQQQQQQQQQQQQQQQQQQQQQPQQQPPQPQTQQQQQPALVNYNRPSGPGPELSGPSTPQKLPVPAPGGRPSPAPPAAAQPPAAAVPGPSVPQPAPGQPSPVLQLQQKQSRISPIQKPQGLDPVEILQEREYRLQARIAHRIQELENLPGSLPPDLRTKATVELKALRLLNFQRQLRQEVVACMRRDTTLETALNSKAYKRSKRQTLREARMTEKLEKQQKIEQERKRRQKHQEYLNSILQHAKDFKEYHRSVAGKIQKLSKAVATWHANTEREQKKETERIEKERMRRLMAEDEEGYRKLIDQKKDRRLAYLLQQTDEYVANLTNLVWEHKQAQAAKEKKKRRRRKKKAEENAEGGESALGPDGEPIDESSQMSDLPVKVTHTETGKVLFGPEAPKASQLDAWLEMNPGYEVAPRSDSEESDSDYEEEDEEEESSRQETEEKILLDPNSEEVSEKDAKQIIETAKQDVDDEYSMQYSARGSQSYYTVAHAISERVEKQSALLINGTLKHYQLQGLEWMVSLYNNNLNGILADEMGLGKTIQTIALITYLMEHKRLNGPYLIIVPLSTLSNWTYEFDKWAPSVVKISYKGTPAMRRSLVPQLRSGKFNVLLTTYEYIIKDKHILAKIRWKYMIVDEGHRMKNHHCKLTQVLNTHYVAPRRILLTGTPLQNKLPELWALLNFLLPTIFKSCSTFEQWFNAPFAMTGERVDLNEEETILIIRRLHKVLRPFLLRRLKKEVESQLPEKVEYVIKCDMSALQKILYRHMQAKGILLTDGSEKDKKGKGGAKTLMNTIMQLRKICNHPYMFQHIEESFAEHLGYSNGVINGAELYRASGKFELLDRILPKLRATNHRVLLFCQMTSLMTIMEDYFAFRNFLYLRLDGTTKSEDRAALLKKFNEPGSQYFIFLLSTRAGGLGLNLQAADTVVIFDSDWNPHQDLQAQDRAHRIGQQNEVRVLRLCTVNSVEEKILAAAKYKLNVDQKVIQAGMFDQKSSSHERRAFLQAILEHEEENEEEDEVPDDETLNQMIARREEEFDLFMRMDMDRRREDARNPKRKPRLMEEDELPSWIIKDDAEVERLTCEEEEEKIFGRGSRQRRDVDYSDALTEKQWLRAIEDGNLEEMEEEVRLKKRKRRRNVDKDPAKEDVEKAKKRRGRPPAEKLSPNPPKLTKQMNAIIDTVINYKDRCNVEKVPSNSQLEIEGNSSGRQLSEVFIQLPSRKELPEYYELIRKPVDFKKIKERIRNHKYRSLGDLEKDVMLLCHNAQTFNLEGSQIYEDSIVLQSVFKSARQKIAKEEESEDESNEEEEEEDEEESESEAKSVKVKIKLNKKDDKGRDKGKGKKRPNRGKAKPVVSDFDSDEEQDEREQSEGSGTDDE

Take `CN1CCC(c2ccc3c(c2)n(C2CCCC2)c2nc(=O)c4c(Br)cccc4n32)CC1` [compound 3]: the DC50 on SMARCA2 (setting [1]) and on SMARCA2 (setting [2]) was greater than 2500 nM in each case.
Consider `Cc1ncsc1-c1ccc([C@H](COC(C)CN2CCC(c3ccc4c(c3)n(C3CCCC3)c3nc(=O)c5c(Br)cccc5n43)CC2)NC(=O)[C@@H]2C[C@@H](O)CN2C(=O)[C@@H](NC(=O)C2(N(C)C)CC2)C(C)(C)C)cc1` (some centres unmarked) [compound 10], for which the fraction unbound at 5 h, 3 µmol/L was 0.05 in “Plasma protein binding” (10% calf plasma dilution in PBS, fraction unbound) and 0.0548 in the data set “Plasma protein binding” (10% plasma (plasma dilution in PBS)).
`Cc1ncsc1-c1ccc(CNC(=O)[C@@H]2C[C@@H](O)CN2C(=O)[C@@H](NC(=O)C2(F)CC2)C(C)(C)C)c(OCCN2CCC(c3ccc4c(c3)n(C3CCCC3)c3nc(=O)c5c(Br)cccc5n43)CC2)c1` [compound 20]: the DC50 on SMARCA2 (setting [1]) and at SMARCA2 (setting [2]) was greater than 2500 nM throughout.
In the case of `Cc1ncsc1-c1ccc([C@H](CCCCN2CCC(c3ccc4c(c3)n(C3CCCC3)c3nc(=O)c5c(Br)cccc5n43)CC2)NC(=O)[C@@H]2C[C@@H](O)CN2C(=O)[C@@H](NC(=O)C2(F)CC2)C(C)(C)C)cc1` [compound 25], the entries for the “PPB fu 10% Calf” value in “Plasma protein binding” and in “Plasma protein binding” (fraction unbound) were 0.731% and 0.7%, respectively.
Turning to `Cc1ncsc1-c1ccc([C@H](COC(C)(C)CN2CCC(c3ccc4c(c3)n(C3CCCC3)c3nc(=O)c5c(Br)cccc5n43)CC2)NC(=O)[C@@H]2C[C@@H](O)CN2C(=O)[C@@H](NC(=O)C2(F)CC2)C(C)(C)C)cc1` [compound 28], the “SMARCA2 Dmax” value at SMARCA2 (NCI-H1568 (4 h), mean ± SD) amounted to 94 ± 6%. Besides, the DC50 on SMARCA2 (setting [1]) was determined as 18 ± 13 nM. Moreover, the DC50 on SMARCA2 (setting [2]) was 6.62 nM and 28.2 nM and 30.1 nM. In the data set “Plasma protein binding”, the “PPB fu 10% Calf” value was 1.857% and 2.316%; the “PPB fu 10% Human” value was less than 0.224%; the “PPB fu 10% Mouse” value is less than 0.219%; the “PPB fu 10% Rat” value was less than 0.231%. Besides, in the data set “Plasma protein binding” (fraction unbound), the “PPB fu 10% Calf” value was 2 ± 0.3%, the “PPB fu Human” value is recorded as less than 0.2%, the “PPB fu Mouse” value is recorded as less than 0.2% and the “PPB fu Rat” value is less than 0.2%.
`Cc1ncsc1-c1ccc([C@H](CC[C@@H](C)CCN2CCC(c3ccc4c(c3)n(C3CCCC3)c3nc(=O)c5c(Br)cccc5n43)CC2)NC(=O)[C@@H]2C[C@@H](O)CN2C(=O)[C@@H](NC(=O)C2(F)CC2)C(C)(C)C)cc1` [compound 29]: in the data set “Plasma protein binding”, the “PPB fu 10% Calf” value was less than 0.144%, the “PPB fu 10% Human” value was less than 0.052%, the “PPB fu 10% Mouse” value was less than 0.335% and the “PPB fu 10% Rat” value is recorded as less than 0.272%. In the data set “Plasma protein binding” (fraction unbound), the “PPB fu 10% Calf” value is recorded as less than 0.14%, the “PPB fu Human” value was less than 0.05%, the “PPB fu Mouse” value is on record as less than 0.34% and the “PPB fu Rat” value is listed as less than 0.27%.
With `Cc1ncsc1-c1ccc([C@H](CCC(C)(C)CCN2CCC(c3ccc4c(c3)n(C3CCCC3)c3nc(=O)c5c(Br)cccc5n43)CC2)NC(=O)[C@@H]2C[C@@H](O)CN2C(=O)[C@@H](NC(=O)C2(F)CC2)C(C)(C)C)cc1` [compound 30], the “PPB fu 10% Calf” value in “Plasma protein binding” is less than 0.071%; in the data set “Plasma protein binding” (fraction unbound), less than 0.07%.
